Data from ChEMBL document CHEMBL5465560, “Selectivity Literature for EUbOPEN Chemogenomic Library” (2024).

How the values were obtained:
[1] = target: Serine/threonine-protein kinase Chk2 (Homo sapiens) (UniProt O96017); test: Selectivity interaction (KinomeScan (DiscoverX)) EUB0000092b CHEK2; settings: at 10 µM
[2] = target: Glycogen synthase kinase-3 alpha (Homo sapiens, UniProt P49840); test: Selectivity interaction (KinomeScan (DiscoverX)) EUB0000655a GSK3A; settings: at 10 µM
[3] = target: Calcium/calmodulin-dependent protein kinase type 1D (Homo sapiens) (UniProt Q8IU85); test: Selectivity interaction (Kinase panel (KiNativ target engagement assay in Jurkat cells)) EUB0001635a CAMK1D; type: cell-based; settings: at 1 µM
Chain of Calcium/calmodulin-dependent protein kinase type 1D (Homo sapiens) (Q8IU85 whole entry, looked up): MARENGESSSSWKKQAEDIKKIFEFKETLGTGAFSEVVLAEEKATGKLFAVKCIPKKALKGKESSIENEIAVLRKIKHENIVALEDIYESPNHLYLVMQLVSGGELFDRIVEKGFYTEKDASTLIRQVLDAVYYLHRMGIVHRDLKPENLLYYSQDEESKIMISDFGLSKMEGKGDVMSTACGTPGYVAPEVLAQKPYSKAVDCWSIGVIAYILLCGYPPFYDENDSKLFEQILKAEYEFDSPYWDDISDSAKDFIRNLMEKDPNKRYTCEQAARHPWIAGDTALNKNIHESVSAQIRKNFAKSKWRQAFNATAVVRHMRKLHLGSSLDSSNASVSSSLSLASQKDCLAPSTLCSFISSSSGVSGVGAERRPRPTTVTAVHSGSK

[4] = target: T1, Serine/threonine-protein kinase 17A (Homo sapiens) (UniProt Q9UEE5); test: Selectivity interaction (KinomeScan (DiscoverX)) EUB0000666a STK17A; settings: at 10 µM
T1 sequence (whole entry): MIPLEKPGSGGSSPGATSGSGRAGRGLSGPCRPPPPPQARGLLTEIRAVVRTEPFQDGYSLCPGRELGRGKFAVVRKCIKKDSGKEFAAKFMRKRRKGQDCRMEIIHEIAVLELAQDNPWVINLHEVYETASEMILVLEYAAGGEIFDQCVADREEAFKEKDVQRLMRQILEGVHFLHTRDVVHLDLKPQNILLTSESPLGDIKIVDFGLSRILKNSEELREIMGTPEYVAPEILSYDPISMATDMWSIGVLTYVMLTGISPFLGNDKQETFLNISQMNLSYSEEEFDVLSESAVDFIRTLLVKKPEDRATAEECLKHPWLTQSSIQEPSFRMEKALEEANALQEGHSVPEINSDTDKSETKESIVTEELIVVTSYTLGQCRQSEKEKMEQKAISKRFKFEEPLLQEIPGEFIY

[5] = target: Cyclin-dependent kinase 7 (Homo sapiens, UniProt P50613); settings: at 10 µM
Chain of Cyclin-dependent kinase 7 (P50613 whole entry): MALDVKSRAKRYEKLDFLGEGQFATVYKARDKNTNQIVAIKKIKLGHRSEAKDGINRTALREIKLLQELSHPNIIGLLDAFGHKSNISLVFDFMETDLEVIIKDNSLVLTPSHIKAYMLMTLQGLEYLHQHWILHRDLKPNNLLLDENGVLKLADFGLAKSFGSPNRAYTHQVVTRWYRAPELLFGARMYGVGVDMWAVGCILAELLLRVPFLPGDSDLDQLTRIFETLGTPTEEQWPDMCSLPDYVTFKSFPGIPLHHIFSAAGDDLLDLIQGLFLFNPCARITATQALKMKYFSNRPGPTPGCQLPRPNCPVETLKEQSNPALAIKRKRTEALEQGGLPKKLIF

[6] = target: T2, Scaffold protein ILK (Homo sapiens) (UniProt Q13418); test: Selectivity interaction (ActivX KiNativ screen (kinase selectivity in THP-1 cell lysates)) EUB0000639a ILK; type: subcellular; settings: lysate, at 5 µM
T2 sequence (whole entry): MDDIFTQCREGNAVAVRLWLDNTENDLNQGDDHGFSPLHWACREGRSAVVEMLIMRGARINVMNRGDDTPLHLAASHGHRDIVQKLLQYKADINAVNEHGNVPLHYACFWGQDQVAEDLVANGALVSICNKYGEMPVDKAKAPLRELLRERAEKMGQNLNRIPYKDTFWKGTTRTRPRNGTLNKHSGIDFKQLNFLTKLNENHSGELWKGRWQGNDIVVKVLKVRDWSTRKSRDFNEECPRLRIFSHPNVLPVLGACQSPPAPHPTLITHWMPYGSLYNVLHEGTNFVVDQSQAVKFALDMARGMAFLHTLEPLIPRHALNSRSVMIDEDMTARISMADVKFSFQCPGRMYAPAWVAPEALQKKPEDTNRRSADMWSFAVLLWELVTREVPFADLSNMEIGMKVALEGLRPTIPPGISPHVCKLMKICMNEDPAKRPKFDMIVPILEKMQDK

[7] = target: Mitogen-activated protein kinase kinase kinase 9 (Homo sapiens) (UniProt P80192); test: Selectivity interaction (KinomeScan (DiscoverX)) EUB0000607a MAP3K9; settings: at 10 µM
Chain of Mitogen-activated protein kinase kinase kinase 9 (Homo sapiens) (P80192 whole entry, looked up): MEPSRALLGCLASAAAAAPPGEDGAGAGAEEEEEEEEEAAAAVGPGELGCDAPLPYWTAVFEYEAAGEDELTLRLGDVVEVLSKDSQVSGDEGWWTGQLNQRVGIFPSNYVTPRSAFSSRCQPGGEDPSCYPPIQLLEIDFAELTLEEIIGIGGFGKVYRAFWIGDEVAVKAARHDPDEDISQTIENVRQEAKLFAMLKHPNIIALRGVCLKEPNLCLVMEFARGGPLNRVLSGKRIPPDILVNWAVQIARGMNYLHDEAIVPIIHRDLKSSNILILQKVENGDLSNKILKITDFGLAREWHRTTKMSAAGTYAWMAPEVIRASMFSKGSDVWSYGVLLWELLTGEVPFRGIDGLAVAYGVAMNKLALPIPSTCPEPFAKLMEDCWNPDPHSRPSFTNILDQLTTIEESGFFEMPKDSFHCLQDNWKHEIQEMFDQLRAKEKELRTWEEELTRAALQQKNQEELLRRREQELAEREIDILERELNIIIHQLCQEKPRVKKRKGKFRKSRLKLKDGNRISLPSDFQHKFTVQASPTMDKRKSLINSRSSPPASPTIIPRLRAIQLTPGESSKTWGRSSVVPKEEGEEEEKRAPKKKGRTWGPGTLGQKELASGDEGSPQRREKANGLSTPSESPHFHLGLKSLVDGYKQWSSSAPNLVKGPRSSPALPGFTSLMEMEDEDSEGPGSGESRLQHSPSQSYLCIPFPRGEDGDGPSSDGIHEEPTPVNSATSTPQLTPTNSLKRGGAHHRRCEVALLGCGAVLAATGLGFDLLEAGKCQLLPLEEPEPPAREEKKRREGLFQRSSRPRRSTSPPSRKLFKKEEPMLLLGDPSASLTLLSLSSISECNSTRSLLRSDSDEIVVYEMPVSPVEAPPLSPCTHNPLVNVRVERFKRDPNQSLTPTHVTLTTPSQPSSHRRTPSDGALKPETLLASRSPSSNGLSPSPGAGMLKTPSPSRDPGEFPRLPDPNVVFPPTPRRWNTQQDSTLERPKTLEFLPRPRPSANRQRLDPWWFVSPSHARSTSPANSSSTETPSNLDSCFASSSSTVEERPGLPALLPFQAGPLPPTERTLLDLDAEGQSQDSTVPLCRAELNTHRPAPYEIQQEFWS

[8] = target: T3, Ephrin type-B receptor 3 (Homo sapiens) (UniProt P54753); test: Selectivity interaction (KinomeScan (DiscoverX)) EUB0001049a EPHB3; settings: at 1 µM
T3 sequence (whole entry): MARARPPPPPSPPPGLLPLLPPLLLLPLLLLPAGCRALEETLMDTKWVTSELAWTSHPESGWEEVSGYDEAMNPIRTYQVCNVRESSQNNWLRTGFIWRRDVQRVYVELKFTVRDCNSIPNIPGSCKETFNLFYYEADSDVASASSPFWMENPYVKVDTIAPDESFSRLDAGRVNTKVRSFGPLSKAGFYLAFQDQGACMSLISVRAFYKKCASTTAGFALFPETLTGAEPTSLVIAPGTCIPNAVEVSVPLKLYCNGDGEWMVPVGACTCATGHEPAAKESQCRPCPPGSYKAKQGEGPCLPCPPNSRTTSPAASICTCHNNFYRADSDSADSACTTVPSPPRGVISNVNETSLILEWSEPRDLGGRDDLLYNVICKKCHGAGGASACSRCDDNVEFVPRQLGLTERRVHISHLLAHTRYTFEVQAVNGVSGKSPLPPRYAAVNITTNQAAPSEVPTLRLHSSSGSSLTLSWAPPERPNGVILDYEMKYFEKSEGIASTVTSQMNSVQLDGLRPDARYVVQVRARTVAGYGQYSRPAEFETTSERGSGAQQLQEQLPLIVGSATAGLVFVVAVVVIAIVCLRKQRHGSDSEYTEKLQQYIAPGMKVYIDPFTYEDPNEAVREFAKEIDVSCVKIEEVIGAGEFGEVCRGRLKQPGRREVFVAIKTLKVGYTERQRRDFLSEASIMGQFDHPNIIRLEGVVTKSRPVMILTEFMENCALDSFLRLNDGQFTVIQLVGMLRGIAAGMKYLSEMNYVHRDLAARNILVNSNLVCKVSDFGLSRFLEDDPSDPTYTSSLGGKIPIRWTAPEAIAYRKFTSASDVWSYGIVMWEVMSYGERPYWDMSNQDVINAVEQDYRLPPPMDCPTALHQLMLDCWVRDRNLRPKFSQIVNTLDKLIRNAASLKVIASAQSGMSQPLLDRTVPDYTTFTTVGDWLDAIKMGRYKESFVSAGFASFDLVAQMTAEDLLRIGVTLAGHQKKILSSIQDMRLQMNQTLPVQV

[9] = target: Fibroblast growth factor receptor 2 (Homo sapiens) (UniProt P21802); test: Selectivity interaction (KinomeScan (DiscoverX)) EUB0000595a FGFR2; settings: at 10 µM
Chain of Fibroblast growth factor receptor 2 (Homo sapiens) (P21802 22-821 limits assumed): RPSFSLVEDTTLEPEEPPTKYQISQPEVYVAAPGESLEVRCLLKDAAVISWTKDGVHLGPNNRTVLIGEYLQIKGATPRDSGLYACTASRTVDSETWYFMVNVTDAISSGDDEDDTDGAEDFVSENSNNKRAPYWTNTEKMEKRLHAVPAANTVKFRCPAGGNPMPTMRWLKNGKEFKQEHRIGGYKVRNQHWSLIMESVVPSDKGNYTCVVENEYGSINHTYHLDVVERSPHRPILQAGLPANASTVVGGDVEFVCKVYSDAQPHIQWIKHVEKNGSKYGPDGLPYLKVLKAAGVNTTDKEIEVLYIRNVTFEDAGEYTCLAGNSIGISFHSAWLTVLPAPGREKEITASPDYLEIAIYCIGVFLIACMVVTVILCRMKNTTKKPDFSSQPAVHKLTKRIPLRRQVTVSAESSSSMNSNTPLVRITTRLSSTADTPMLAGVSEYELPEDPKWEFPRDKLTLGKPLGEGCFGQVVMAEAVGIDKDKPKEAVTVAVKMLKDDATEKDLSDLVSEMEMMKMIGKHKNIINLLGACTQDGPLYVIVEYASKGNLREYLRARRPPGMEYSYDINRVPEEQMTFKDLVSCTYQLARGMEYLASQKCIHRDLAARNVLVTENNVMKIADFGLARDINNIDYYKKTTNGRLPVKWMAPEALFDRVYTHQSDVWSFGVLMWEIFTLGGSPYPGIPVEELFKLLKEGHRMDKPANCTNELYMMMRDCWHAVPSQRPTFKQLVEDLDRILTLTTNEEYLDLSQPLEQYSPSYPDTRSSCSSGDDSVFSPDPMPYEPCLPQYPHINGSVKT

[10] = target: T4, Interleukin-1 receptor-associated kinase 4 (Homo sapiens) (UniProt Q9NWZ3); test: Selectivity interaction (KinomeScan (DiscoverX)) EUB0000595a IRAK4; settings: at 10 µM
T4 sequence (whole entry): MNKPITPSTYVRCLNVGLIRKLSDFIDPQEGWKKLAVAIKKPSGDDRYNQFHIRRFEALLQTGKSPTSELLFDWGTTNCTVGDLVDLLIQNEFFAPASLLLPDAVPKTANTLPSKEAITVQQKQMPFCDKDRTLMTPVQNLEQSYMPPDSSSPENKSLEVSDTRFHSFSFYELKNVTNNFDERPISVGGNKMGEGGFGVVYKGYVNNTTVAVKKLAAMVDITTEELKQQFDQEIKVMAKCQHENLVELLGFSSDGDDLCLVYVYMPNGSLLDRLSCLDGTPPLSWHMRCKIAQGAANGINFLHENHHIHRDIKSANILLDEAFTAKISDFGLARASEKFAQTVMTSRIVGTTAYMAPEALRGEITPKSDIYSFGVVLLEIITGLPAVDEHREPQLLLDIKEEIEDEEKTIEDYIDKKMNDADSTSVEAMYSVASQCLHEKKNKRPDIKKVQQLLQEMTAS

Chain of Glycogen synthase kinase-3 alpha (P49840 2-483 limits assumed): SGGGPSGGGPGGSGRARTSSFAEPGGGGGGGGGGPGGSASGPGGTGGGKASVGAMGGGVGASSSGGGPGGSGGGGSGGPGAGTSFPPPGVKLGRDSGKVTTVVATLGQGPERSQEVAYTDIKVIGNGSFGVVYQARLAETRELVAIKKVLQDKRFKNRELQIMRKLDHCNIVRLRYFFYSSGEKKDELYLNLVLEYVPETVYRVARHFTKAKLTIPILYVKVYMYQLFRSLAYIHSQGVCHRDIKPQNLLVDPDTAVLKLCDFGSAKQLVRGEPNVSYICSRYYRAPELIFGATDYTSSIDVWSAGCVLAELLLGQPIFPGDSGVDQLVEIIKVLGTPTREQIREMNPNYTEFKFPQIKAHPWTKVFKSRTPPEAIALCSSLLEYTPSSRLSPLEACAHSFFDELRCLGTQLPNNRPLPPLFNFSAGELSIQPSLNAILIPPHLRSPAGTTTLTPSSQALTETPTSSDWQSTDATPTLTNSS
Chain of Serine/threonine-protein kinase Chk2 (Homo sapiens) (O96017 whole entry): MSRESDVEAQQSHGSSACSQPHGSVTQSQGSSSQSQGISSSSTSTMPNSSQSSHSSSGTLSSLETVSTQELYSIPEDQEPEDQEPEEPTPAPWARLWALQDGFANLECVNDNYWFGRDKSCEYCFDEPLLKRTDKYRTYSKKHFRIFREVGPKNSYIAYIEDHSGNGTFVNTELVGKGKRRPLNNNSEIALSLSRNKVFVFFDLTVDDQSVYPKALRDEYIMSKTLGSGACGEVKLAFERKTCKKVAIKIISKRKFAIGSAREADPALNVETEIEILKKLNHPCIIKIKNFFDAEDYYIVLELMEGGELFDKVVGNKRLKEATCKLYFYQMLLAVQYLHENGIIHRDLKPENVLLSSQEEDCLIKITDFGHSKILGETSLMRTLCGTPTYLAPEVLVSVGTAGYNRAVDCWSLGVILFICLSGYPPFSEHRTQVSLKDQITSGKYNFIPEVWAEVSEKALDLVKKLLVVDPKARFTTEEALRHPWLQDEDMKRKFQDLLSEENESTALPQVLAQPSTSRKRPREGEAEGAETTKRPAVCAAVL

## CCC(=O)N1CCN(c2ccc(-n3c(=O)ccc4cnc5ccc(-c6cnc7ccccc7c6)cc5c43)cc2C(F)(F)F)CC1
[1]
  % of control: 100%

## CN(C)CCOc1ccc(-c2nc(-c3ccncc3)c(-c3ccc4c(c3)CC/C4=N\O)[nH]2)cc1
[2]
  % of control: 100%

## C=CC(=O)Nc1ccc(C(=O)Nc2[nH]nc3c2CN(C(=O)N[C@H](CN(C)C)c2ccccc2)C3(C)C)cc1
[3]; Selectivity number of off-targets 0.0, Selectivity number of targets 233.0, Source Knowledge https://www.sciencedirect.com/science/article/pii/S2451945619300674?via%3Dihub
  % of engagement: 18.9%
[3]
  % of engagement: 8.9%

## O=C(NOC[C@H](O)CO)c1ccc(F)c(F)c1Nc1ccc(I)cc1F
[4]
  % of control: 100%

## Cc1cc([C@@H](C)Nc2ccccc2C(=O)O)c2nc(N3CCOCC3)cc(=O)n2c1 [AZD-6482]
[5]
  % of control: 97%

## CC[C@@H]1[C@H](F)C(=O)N[C@@H]1COc1nccc2cc(C(N)=O)c(OC)cc12 [ZIMLOVISERTIB]
[6]
  % of inhibition: -24.1%

## CNC(=O)Nc1ccc(-c2nc(N3CC4CCC(C3)O4)c3cnn(C4CCC5(CC4)OCCO5)c3n2)cc1
[7]
  % of control: 97%

## COc1cc(Nc2nc(C)cc(-c3cnn4nc(OC)ccc34)n2)cc(C(F)(F)F)c1
[8]
  % of control: 97%

## COCC(=O)NC/C=C/c1ccc2ncnc(Nc3ccc(Oc4ccc(C)nc4)c(C)c3)c2c1 [CP-724714]
[9]
  % of control: 100%
[10]
  % of control: 100%
